Test results: US10597387B2, “Methods to treat lymphoplasmacytic lymphoma” (Dana-Farber Cancer Institute, Inc., priority 2013, dated 2020)
Where two headings read alike, the source gives them in different places.

Legend:
Assay in all cases: KiNativ kinase profiling
MARK2, MARK3 = format: binding, Homo sapiens; conditions: Lys2, 1 μM, A375 cells
[1] = test system: CaMK2a, CaMK2b, CaMK2d, CaMK2g; format: binding, Homo sapiens; conditions: Lys2, 1 μM, A375 cells
TEC = TEC (Homo sapiens (Human), UniProt P42680); format: binding; conditions: Activation Loop, A375 cells, read-out: inhibition of kinase labeling
PIP4K2A = PIP4K2A (Homo sapiens (Human), UniProt P48426); format: binding; conditions: ATP, A375 cells, read-out: inhibition of kinase labeling
ULK3 = ULK3 (Homo sapiens (Human), UniProt Q6PHR2); format: binding; conditions: Lys1, A375 cells, read-out: inhibition of kinase labeling
MAP3K4 = MAP3K4 (Homo sapiens (Human), UniProt Q9Y6R4); format: binding; conditions: Lys2, A375 cells, read-out: inhibition of kinase labeling
CaMK2d = CaMK2d (Homo sapiens (Human), UniProt Q13557); format: binding; conditions: Lys1, A375 cells, read-out: inhibition of kinase labeling
GCK = GCK (Homo sapiens (Human), UniProt Q12851); format: binding; conditions: Lys2, A375 cells, read-out: inhibition of kinase labeling
CK1a = CK1a (Homo sapiens (Human), UniProt P48729); format: binding; conditions: Lys2, A375 cells, read-out: inhibition of kinase labeling
PKD1, PKD2 = format: binding, Homo sapiens; conditions: Lys2, 1 μM, A375 cells
MAP2K5 = MAP2K5 (Homo sapiens (Human), UniProt Q13163); format: binding; conditions: Lys2, A375 cells, read-out: inhibition of kinase labeling
p70S6K = p70S6K (Homo sapiens (Human), UniProt P23443); format: binding; conditions: Lys2, A375 cells, read-out: inhibition of kinase labeling
TAO2 = TAO2 (Homo sapiens (Human), UniProt Q9UL54); format: binding; conditions: Lys2, A375 cells, read-out: inhibition of kinase labeling
MAP3K1 = MAP3K1 (Homo sapiens (Human), UniProt Q13233); format: binding; conditions: Lys2, A375 cells, read-out: inhibition of kinase labeling
STLK6 = STLK6 (Homo sapiens (Human), UniProt Q9C0K7); format: binding; conditions: Lys2, A375 cells, read-out: inhibition of kinase labeling
Chain of STLK6 (Q9C0K7 whole entry, the tested form may be a part): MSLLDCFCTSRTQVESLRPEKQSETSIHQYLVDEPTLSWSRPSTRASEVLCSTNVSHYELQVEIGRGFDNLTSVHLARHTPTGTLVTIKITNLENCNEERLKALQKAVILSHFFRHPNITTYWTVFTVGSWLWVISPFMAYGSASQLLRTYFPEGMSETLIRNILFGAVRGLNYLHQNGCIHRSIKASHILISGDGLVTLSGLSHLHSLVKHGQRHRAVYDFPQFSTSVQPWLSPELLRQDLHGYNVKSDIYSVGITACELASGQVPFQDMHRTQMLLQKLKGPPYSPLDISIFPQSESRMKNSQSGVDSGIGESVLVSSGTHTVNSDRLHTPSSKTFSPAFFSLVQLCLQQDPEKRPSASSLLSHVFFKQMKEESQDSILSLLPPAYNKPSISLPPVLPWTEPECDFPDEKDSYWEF

JAK1 = JAK1 (Homo sapiens (Human), UniProt P23458); format: binding; conditions: Protein Kinase Domain, A375 cells, read-out: inhibition of kinase labeling
LYN = LYN (Homo sapiens (Human), UniProt P07948); format: binding; conditions: read-out: inhibition of kinase labeling
Chain of LYN (P07948 whole entry): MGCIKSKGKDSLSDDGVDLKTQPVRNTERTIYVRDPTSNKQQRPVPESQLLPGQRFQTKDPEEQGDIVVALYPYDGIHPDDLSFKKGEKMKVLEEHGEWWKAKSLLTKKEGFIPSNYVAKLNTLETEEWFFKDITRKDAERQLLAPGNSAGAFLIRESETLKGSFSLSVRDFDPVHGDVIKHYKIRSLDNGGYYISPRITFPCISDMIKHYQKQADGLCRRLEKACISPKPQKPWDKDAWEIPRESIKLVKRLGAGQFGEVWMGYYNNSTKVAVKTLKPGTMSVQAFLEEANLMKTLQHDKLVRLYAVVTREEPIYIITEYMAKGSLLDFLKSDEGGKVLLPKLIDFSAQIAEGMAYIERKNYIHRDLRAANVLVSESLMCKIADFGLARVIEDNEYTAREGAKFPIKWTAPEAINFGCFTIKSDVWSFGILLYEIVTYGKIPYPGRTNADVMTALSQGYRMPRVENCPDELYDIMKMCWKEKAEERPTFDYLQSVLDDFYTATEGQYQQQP

PKD3 = PKD3 (Homo sapiens (Human), UniProt O94806); format: binding; conditions: Lys2, A375 cells, read-out: inhibition of kinase labeling
MST2 = MST2 (Homo sapiens (Human), UniProt Q13188); format: binding; conditions: Lys1, A375 cells, read-out: inhibition of kinase labeling
MAP3K5 = MAP3K5 (Homo sapiens (Human), UniProt Q99683); format: binding; conditions: Lys2, A375 cells, read-out: inhibition of kinase labeling
AurB = AurB (Homo sapiens (Human), UniProt Q96GD4); format: binding; conditions: Lys1, A375 cells, read-out: inhibition of kinase labeling
Chain of AurB (Q96GD4 whole entry): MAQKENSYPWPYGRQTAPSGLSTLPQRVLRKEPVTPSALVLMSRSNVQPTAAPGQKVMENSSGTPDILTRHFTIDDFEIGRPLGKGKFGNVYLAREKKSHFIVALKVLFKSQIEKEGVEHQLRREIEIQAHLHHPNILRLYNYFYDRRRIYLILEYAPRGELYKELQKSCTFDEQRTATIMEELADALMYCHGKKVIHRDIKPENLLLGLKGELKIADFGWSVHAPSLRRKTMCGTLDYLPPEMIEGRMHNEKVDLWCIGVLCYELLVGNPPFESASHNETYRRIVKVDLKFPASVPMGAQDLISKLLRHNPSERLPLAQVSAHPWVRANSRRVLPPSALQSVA

FYN, SRC, YES = format: binding, Homo sapiens; conditions: Activation Loop, 1 μM, A375 cells
PKR = PKR (Homo sapiens (Human), UniProt P19525); format: binding; conditions: Lys2, A375 cells, read-out: inhibition of kinase labeling
BTK = BTK (Homo sapiens (Human), UniProt Q06187); format: binding; conditions: read-out: inhibition of kinase labeling
Chain of BTK (Q06187 whole entry): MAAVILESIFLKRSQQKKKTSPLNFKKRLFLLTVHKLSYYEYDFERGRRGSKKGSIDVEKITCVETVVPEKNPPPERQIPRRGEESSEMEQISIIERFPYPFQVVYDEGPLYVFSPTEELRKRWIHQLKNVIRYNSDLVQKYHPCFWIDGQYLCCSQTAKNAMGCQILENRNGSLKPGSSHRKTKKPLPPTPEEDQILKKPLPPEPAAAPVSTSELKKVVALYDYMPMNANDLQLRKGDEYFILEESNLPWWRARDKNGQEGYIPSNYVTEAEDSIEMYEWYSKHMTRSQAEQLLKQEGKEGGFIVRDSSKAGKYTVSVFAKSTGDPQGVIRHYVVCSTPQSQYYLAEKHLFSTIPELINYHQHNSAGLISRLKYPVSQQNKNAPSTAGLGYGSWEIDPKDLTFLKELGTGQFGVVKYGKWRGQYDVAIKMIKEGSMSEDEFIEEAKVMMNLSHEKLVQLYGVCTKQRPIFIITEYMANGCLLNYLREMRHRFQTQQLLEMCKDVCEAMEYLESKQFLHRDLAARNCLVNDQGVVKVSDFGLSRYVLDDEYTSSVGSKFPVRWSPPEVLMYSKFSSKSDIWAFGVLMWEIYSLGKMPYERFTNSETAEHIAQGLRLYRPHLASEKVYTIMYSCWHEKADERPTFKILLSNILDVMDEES

NDR1 = NDR1 (Homo sapiens (Human), UniProt Q15208); format: binding; conditions: Lys1, A375 cells, read-out: inhibition of kinase labeling
Chain of NDR1 (Q15208 whole entry): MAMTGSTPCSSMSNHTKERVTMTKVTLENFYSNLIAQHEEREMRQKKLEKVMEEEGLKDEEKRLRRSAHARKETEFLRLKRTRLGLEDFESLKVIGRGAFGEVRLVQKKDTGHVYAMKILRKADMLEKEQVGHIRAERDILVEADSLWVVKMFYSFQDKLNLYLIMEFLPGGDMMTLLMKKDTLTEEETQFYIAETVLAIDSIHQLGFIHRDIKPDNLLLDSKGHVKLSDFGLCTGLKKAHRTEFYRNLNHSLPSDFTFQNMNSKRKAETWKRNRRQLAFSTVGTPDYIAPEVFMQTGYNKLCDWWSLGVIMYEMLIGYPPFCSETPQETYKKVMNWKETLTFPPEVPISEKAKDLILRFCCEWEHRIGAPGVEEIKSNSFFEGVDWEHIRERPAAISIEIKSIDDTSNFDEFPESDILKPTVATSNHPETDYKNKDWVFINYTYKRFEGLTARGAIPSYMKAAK

MARK3 = MARK3 (Homo sapiens (Human), UniProt P27448); format: binding; conditions: Lys1, A375 cells, read-out: inhibition of kinase labeling
IKKe = IKKe (Homo sapiens (Human), UniProt Q14164); format: binding; conditions: Lys1, A375 cells, read-out: inhibition of kinase labeling
Chain of IKKe (Q14164 whole entry): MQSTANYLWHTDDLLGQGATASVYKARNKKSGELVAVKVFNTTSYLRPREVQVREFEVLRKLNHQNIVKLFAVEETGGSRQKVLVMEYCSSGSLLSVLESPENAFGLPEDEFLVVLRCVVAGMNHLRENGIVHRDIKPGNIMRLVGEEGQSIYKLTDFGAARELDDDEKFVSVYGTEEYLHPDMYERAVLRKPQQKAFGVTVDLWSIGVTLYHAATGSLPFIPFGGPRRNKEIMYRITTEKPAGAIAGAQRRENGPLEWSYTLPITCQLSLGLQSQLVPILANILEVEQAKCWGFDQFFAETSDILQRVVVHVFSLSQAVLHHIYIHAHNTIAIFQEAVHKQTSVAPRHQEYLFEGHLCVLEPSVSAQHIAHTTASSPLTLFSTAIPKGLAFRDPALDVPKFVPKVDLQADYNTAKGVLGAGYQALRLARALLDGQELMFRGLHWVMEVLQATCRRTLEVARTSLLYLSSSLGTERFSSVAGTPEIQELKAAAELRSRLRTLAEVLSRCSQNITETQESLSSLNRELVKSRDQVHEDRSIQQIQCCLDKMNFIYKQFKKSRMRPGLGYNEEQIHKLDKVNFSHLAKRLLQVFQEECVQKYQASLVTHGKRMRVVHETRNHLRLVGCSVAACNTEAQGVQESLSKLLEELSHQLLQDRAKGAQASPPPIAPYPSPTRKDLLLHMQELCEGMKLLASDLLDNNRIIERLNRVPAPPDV

MAP2K6 = MAP2K6 (Homo sapiens (Human), UniProt P52564); format: binding; conditions: Lys2, A375 cells, read-out: inhibition of kinase labeling
Chain of MAP2K6 (P52564 whole entry): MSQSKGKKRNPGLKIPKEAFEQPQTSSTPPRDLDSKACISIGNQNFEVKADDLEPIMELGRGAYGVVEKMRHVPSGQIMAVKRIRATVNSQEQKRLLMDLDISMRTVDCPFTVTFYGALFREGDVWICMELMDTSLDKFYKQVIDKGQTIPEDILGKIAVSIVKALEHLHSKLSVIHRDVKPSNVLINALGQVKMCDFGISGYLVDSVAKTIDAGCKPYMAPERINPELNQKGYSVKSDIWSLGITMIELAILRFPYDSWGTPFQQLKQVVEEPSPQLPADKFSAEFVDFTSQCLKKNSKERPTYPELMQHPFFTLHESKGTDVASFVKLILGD

MASTL = MASTL (Homo sapiens (Human), UniProt Q96GX5); format: binding; conditions: Lys1, A375 cells, read-out: inhibition of kinase labeling
Chain of MASTL (Q96GX5 whole entry): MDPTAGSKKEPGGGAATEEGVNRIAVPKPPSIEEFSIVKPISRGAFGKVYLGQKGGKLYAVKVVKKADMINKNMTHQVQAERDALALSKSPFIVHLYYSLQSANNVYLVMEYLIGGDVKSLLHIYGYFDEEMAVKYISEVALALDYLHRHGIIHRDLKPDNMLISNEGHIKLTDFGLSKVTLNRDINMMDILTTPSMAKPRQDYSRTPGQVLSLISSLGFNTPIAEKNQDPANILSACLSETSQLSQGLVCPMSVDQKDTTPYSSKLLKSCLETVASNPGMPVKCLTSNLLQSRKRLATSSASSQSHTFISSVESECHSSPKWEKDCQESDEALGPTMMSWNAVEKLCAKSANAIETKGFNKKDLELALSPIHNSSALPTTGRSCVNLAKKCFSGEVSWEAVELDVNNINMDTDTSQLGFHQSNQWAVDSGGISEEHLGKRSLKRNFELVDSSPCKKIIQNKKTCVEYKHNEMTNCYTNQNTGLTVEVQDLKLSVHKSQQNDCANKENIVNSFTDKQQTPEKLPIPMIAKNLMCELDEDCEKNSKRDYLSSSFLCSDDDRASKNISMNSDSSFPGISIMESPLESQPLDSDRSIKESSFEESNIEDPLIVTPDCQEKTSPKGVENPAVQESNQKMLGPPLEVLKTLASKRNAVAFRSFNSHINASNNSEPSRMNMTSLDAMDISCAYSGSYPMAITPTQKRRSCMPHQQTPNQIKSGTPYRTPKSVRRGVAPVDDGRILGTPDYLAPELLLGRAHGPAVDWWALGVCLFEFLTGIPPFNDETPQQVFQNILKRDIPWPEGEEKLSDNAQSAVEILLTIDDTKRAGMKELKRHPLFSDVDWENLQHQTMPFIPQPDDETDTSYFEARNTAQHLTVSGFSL

TAO1, TAO3 = format: binding, Homo sapiens; conditions: Lys2, 1 μM, A375 cells
CDC2 = CDC2 (Homo sapiens (Human), UniProt P06493); format: binding; conditions: Lys2, A375 cells, read-out: inhibition of kinase labeling
JNK1, JNK2, JNK3 = format: binding, Homo sapiens; conditions: Lys2, 1 μM, A375 cells
CK1g1 = CK1g1 (Homo sapiens (Human), UniProt Q9HCP0); format: binding; conditions: Lys2, A375 cells, read-out: inhibition of kinase labeling
PIP4K2C = PIP4K2C (Homo sapiens (Human), UniProt Q8TBX8); format: binding; conditions: ATP, A375 cells, read-out: inhibition of kinase labeling
Chain of PIP4K2C (Q8TBX8 whole entry): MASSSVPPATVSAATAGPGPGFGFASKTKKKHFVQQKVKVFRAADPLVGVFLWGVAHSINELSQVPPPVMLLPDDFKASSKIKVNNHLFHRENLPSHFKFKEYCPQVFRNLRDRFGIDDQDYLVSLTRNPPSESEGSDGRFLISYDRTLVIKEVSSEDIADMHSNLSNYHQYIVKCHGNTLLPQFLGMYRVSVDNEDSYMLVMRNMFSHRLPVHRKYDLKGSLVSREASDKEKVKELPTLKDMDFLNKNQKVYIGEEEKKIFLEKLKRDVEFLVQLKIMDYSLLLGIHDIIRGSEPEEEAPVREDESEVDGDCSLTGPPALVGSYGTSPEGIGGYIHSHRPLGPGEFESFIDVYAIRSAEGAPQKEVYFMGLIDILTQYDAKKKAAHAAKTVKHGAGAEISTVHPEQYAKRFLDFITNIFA

Cc1ccc(C(=O)Nc2cccc(C(C)(C)C#N)c2)cc1NC(=O)c1cncc(-c2cccs2)c1 [I-6, N-(5-((3-(2-cyanopropan-2-yl)phenyl)carbamoyl)-2-methylphenyl)-5-(thiophen-2-yl)nicotinamide]
inhibition of kinase labeling (MARK2, MARK3): 17.2% | inhibition of kinase labeling [1]: 0.7% | inhibition at 1 µM (TEC): -28.9% | inhibition at 1 µM (PIP4K2A): 12.8% | inhibition at 1 µM (ULK3): -21.5% | inhibition at 1 µM (MAP3K4): 6.5% | inhibition at 1 µM (CaMK2d): -1.1% | inhibition at 1 µM (GCK): 21.9% | inhibition at 1 µM (CK1a): 25.1% | inhibition of kinase labeling (PKD1, PKD2): −2.5% | inhibition at 1 µM (MAP2K5): 28.7% | inhibition at 1 µM (p70S6K): 7.4% | inhibition at 1 µM (TAO2): 33.4% | inhibition at 1 µM (MAP3K1): 9.8% | inhibition at 1 µM (STLK6): 44.8% | inhibition at 1 µM (JAK1): 16.6% | inhibition at 1 µM (LYN; Activation Loop, A375 cells): 68.5% | inhibition at 1 µM (LYN; Lys1, A375 cells): 87.6% | inhibition at 1 µM (PKD3): -4.5% | inhibition at 1 µM (MST2): -6.1% | inhibition at 1 µM (MAP3K5): 16.2% | inhibition at 1 µM (AurB): -94% | inhibition of kinase labeling (FYN, SRC, YES): 55.7% | inhibition at 1 µM (PKR): 3.2% | inhibition at 1 µM (BTK; Activation Loop, A375 cells): -12.5% | inhibition at 1 µM (BTK; Lys1, A375 cells): 7.8% | inhibition at 1 µM (NDR1): -10.5% | inhibition at 1 µM (MARK3): -2.2% | inhibition at 1 µM (IKKe): 3.8% | inhibition at 1 µM (MAP2K6): 9.4% | inhibition at 1 µM (MASTL): -3.7% | inhibition of kinase labeling (TAO1, TAO3): 11.9% | inhibition at 1 µM (CDC2): -7.9% | inhibition of kinase labeling (JNK1, JNK2, JNK3): 11.7% | inhibition at 1 µM (CK1g1): 14.4% | inhibition at 1 µM (PIP4K2C): 12.3%
